The values that follow come from patent US5965568A, “Composition for inhibiting production or secretion of amyloid β protein to treat Down's syndrome” (priority 1995, dated 1999).

In data set [1] the test system is IMR-32 cells. Kind of data set: Evaluation of the cytotoxicity, lactate dehydrogenase (LDH) method, IMR-32 cells. The format is cell-based, human. Particulars: 1×10^-4 (maximum concentration used).
Description: IMR-32 cells were cultured at 37° C. in 10% carbon dioxide/90% air using 10% FCS/DMEM culture solution in a flask (Falcon, 750 ml) until the confluent growth of the cells was obtained. Then, the cells were inoculated in a 48-well multi well plate at a density of 2.5×10^5 cells/well, and cultured for 5 days. […] The cells were cultured for 24 hours. […] The culture supernatant (10 μl) obtained after the assay of Aβ (1-40) was sampled, and the amount of LDH released from the cells was determined with a LDH assay kit (LDH C-II manufactured by Wako Pure Chemical Industries, Ltd.). Four wells were used per dose of the drug. The value in the data was represented as a ratio (%) to the control group. Dunnett's t test was used for the statistical analysis.
For data set [2], the system named is Aβ production or secretion in IMR-32 cells. In words: Inhibitory activity against Aβ production or secretion in human neuroblastoma IMR-32 cells (EIA). Format: cell-based. To be noted: 24 hours, vs control group, mean of 4 wells, read-out: inhibition of Aβ production or secretion, based on the control group. The source says:
(§1) Studies on Aβ production or secretion in human-derived neurons and gliocytes are very interesting because of the relation to Alzheimer's dementia. However, human primary culture neurons and gliocytes cannot generally be used for experimental materials. IMR-32 cells were therefore used. The IMR-32 cells are human-derived neuroblastoma cells, and produce and secrete Aβ in the culture supernatant (Shinkei Kagaku (Neurochemistry) 33, 232 (1994)). In addition, Dr. Hironobu Suzuki et al. (Science, 264, 1336 (1994)) had developed an enzyme immunoassay method that can determine and distinguish between Aβ of 40 amino acids (Aβ (1-40)) and Aβ of 42 amino acids (Aβ (1-42)). This method was used to determine inhibitory activity of the test compound against Aβ production or secretion.
Human neuroblastoma IMR-32 cells were purchased from American Type Culture Collection (ATCC). Dulbecco's modified Eagle's medium (DMEM) was purchased from Nissui Pharmaceutical Co., Ltd., Japan. Fetal calf serum (hereinaftersometimes abbreviated as FCS) and a mixed solution of penicillin (5000 U/ml) and streptomycin (5 mg/ml) were purchased from Biowhittaker Inc. Phosphate buffered saline (PBS) was purchased from Flow Laboratories. Block Ace was purchased from Dainippon Pharmaceutical Co., Ltd. Bovine serum albumin (BSA) was purchased from Sigma. Flasks for culture and 48-well multi well plates were those manufactured by Falcon and Coster Corporation, respectively. Standard samples of Aβ (1-40) and Aβ (1-42) were purchased from Bachem. The other reagents used were commercially available highest quality goods.
IMR-32 cells were cultured at 37° C. in 10% carbon dioxide/90% air using 10% FCS/DMEM culture solution in a flask (Falcon, 750 ml) until the confluent growth of the cells was obtained. Then, the cells were inoculated in a 48-well multi well plate at a density of 2.5×10^5 cells/well, and cultured for 5 days. The culture solution was sucked off, and then DMEM/0.5% BSA (0.5 ml for the assay of Aβ (1-40) or 0.25 ml for the assay of Aβ (1-42)) was added. The cells were cultured for 24 hours.
In each case, the primary antibody was BAN-50 antibody that recognizes the N-terminal region of Aβ (1-40). BA-27 is an antibody prepared using Aβ (1-40) as an antigen, and recognizes the C-terminal region of Aβ (1-40). On the other hand, BC-05 antibody is an antibody prepared using Aβ (35-43) as an antigen, and recognizes the C-terminal region of Aβ (1-42) but not Aβ (1-40). Therefore, Aβ (1-40) can be assayed with a combination of BAN-50 antibody with BA-27 antibody, and Aβ (1-42) can be assayed with a combination of BAN-50 antibody with BC-05 antibody. […]

In data set [3] the test system is Aβ (1-42) production and secretion in IMR-32 cells. Kind of data set: Inhibitory activity against Aβ (1-42) production or secretion in human neuroblastoma IMR-32 cells (EIA, BAN-50/BC-05). Format: cell-based. To be noted: not a significant change.
Description: as §1
Human neuroblastoma IMR-32 cells were purchased from American Type Culture Collection (ATCC). Dulbecco's modified Eagle's medium (DMEM) was purchased from Nissui Pharmaceutical Co., Ltd., Japan. Fetal calf serum (hereinaftersometimes abbreviated as FCS) and a mixed solution of penicillin (5000 U/ml) and streptomycin (5 mg/ml) were purchased from Biowhittaker Inc. Phosphate buffered saline (PBS) was purchased from Flow Laboratories. Block Ace was purchased from Dainippon Pharmaceutical Co., Ltd. Bovine serum albumin (BSA) was purchased from Sigma. […]

For data set [4] the following is noted: has been used as a medicament; cited from earlier work.
Data set [5] deals with Aβ (1-40) production and secretion in guinea pig primary culture neurons. Kind of data set: Inhibitory activity against Aβ (1-40) production and secretion in guinea pig primary culture neurons (EIA). Format: cell-based. Particulars: 3×10^-5 M, 24 hours. An excerpt: Aβ (1-40) and Aβ (1-42) in the culture supernatant were quantified in the same manner as that described in Experiment 1.

The test system of data set [6] is guinea pig primary culture neurons.
Description: Fetal brains were taken out from guinea pigs (SLC-Hartley) that was 28 days pregnant. The cerebral cortex and hippocampus were taken out under a stereoscopic microscope, and, after removing the meninges, were treated in Hank's Balanced Salt Solution (20 ml) containing 0.25% trypsin/0.01% DNase I for 10 minutes. FCS was added to stop the reaction, and the mixture was centrifuged. The cells were dispersed in DMEM culture solution (DMEM/N2 culture solution) containing insulin 5 μg/ml, transferrin 100 μg/ml, progesterone 20 nM, putrescine 100 μM and sodium selenite 30 nM. The dispersion was filtered through double lens paper, and the filtrate was centrifuged to collect the cells. The cells were dispersed in DMEM/N2 culture solution, and inoculated in a 24-well plate at a density of 1×10^-6 cells/well. On the second day from the beginning of the cultivation, the culture solution was replaced with DMEM/N2 culture solution containing cytosine arabinoside (1 μM). After the treatment for 3 days, the culture solution was replaced with DMEM/N2 culture solution. Thereafter, the culture solution was replaced every 2 to 3 days. […] After the culture supernatant was collected, DMEM culture solution (300 μl) containing 1.2 mM MTT was added. After the reaction was carried out at 37° C. for 1 hour, an equal amount of 10% sodium dodecyl sulfate solution was added.
The subject of data set [7] is IMR-32 cells. In words: Evaluation of the cytotoxicity, MTT method, IMR-32 cells. Format: cell-based, human. Particulars: 1×10^-4 (maximum concentration used). Background: Formazan colour is commonly taken as a measure of viable cells.
Description: The culture supernatant was sampled, and DMEM culture solution (500 μl) containing 1.2 mM MTT {3-(4,5dimethyl-2-thiazolyl)-2,5-diphenyl-2H-tetrazolium bromide} was added. The reaction was carried out for 1 hour at 37° C., and then an equal amount of 10% sodium dodecyl sulfate solution was added. The mixture was gently stirred overnight to dissolve the resulting formazan, and then subjected to colorimetry (wavelength: 550 nm) with a plate reader.
Four wells were used per dose of the drug. The value in the data was represented as a ratio (%) to the control group. Dunnett's t test was used for the statistical analysis.
The next data set deals with secreted βAPP. Particulars: in vitro various cells; cited from earlier work.
Data set [8] concerns Aβ production or secretion. Particulars: in vitro various cells; cited from earlier work.

`CCOC(=O)C1=C[C@]2(CC)CCCN3CCc4c(n1c1ccccc41)[C@@H]32` [Vinpocetine, vinpocetine]: the “cytotoxicity (LDH activity in the culture supernatant)” value with IMR-32 cells [1] is “only slight cytotoxicity”. Besides, in [2] (1×10^-4 M), the inhibition at 100 µM amounted to 45%. Besides, the inhibition at 10 µM in [2] (1×10^-5 M) was 30%. For the same compound, the inhibition at 30 µM in data set [2] (3×10^-5 M) is 40%. Further, in [2] (3×10^-6 M), the inhibition at 3 µM came to 10%. The “Aβ (1-42) production and secretion compared to the control group” value in [3] (1×10^-5 M) and in data set [3] (3×10^-6 M) was “showed a tendency to decrease” throughout. For the same compound, in data set [4], the “toxic problems in use as a medicament” value is “no toxic problems”. In data set [5], the “production or secretion of Aβ (1-40)” value is on record as “inhibited production or secretion of Aβ (1-40)”. Further, the “cytotoxicity (MTT)” value in data set [6] is on record as “without any cytotoxicity”. For the same compound, in the data set on IMR-32 cells [7], the “cytotoxicity (formazan formed from MTT)” value is given as “only slight cytotoxicity”.
`C[N+](C)(C)CCOC(N)=O` [carbacol]: the “secreted βAPP” value in the data set with secreted βAPP is reported as “increase the secreted βAPP”. In data set [8], the “Aβ production or secretion” value is listed as “inhibit Aβ production or secretion”.

In general, inhibition refers to how much of the control response was suppressed.
